Read-outs that look alike come from different tables or passages of the source. Starred links: 1 amine or outer side, 2 acyl side, 3 side chain; linkers in the order of their positions; H or OH if unused. Non-standard residues stand in square brackets, D forms with d. Residues, ends and D or L forms follow the SMILES beside them. *: point of attachment. X1 = O=C(CCCC[C@@H]1SC[C@@H]2NC(=O)N[C@@H]21)NCCCOCCOCCOCCCN*; pT = C[C@@H](OP(=O)(O)O)[C@H](N)C(=O)O; Suc = O=C(CCC(=O)[*:2])[*:1]

This note sets out measurements from publication PMC7961048, “Hierarchized phosphotarget binding by the seven human 14-3-3 isoforms” (Nature Communications, 2021).

Test in all cases: biochemical
Common to all, as to type: binding

In one assay the target is T1, 14-3-3β (Homo sapiens, UniProt P31946).
T1 construct: cDNAs encoding other full-length 14-3-3 isoforms β, τ, η, and σ were obtained as codon-optimized; made in house; host or cells: E. coli BL21(DE3)
T1 sequence (P31946 1-246): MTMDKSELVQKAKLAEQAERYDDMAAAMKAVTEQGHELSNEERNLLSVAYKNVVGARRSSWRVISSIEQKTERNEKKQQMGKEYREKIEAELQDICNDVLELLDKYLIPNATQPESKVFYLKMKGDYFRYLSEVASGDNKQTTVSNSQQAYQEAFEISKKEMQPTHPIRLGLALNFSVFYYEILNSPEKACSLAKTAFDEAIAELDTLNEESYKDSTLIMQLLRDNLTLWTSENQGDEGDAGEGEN
On the procedure: (§1) The seven full-length human 14-3-3 isoforms, produced as fusions to a maltose-binding protein (MBP), were analyzed for their interaction with four phospho-PBMs from E6 proteins of HPV types 16, 18, 33, and 35 belonging to subgroups 1 and 2 (as defined in Supplementary Fig. 1). For comparison, we also measured two non-viral phospho-PBMs originating from protein kinase RSK1[28]. We used a competitive fluorescence polarization (FP) assay that measures the displacement of a fluorescent tracer phosphopeptide (here, derived from the HSPB6 protein) bound beforehand to 14-3-3, by an increasing amount of the peptide of interest.
(§2) For affinity measurements, full-length human 14-3-3 constructs with an N-terminal MBP fusion were used. Plasmids containing the cDNAs of the full-length 14-3-3 isoforms ε, γ, and ζ were received from Prof. Lawrence Banks. cDNAs encoding other full-length 14-3-3 isoforms β, τ, η, and σ were obtained as codon-optimized for E. coli expression synthetic genes from IDT Technologies (Coralville, Iowa, USA). All 14-3-3 isoforms were fused via a three-alanine linker to the C terminus of a mutant MBP carrying the following amino acid substitutions facilitating crystallization: D83A, K84A, K240A, E360A, K363A, and D364A[62]. All resulting clones were verified by sequencing. The MBP-fused proteins were expressed in E. coli BL21(DE3) with IPTG induction. Proteins were affinity purified on an amylose column and were further purified by ion-exchange chromatography (HiTrap Q HP, GE Healthcare). Unfused 14-3-3 isoforms devoid of the flexible C-terminal tails (14-3-3βΔC, 14-3-3τΔC 14-3-3εΔC) were expressed using IPTG induction and purified by subtractive IMAC and SEC[40]. Protein concentrations were determined by UV spectroscopy. The samples were supplemented with glycerol and TCEP before aliquoting and freezing in liquid nitrogen.
(§3) Unless otherwise stated, all phosphopeptide-binding measurements were performed using full-length 14-3-3 proteins fused to the C terminus of MBP, favoring optimal solubility and a standardized parallel purification scheme.
(§4) FP was measured with a PHERAstar (BMG Labtech, Offenburg, Germany) microplate reader by using 485 ± 20 and 528 ± 20 nm band-pass filters (for excitation and emission, respectively). In direct FP measurements, a dilution series of the 14-3-3 protein was prepared in 96-well plates (96-well skirted PCR plate, 4ti-0740, 4titude, Wotton, UK) in a 20 mM HEPES pH 7.5 buffer containing 150 mM NaCl, 0.5 mM TCEP, 0.01% Tween 20, 50 nM fluorescently labeled fpB6 peptide, and 100 μM FSC, if indicated. The volume of the dilution series was 40 μl, which was later divided into three technical replicates of 10 μl upon transferring to 384-well micro-plates (low binding microplate, 384 well, E18063G5, Greiner Bio-One, Kremsmünster, Austria). In total, polarization of the probe was measured at eight different protein concentrations (whereas one contained no protein and corresponded to the free peptide). In competitive FP measurements, the same buffer was supplemented with the protein to achieve a complex formation of 60–80%, based on the direct titration. Then, this mixture was used for creating a dilution series of the unlabeled competitor (i.e., the studied peptides) and the measurement was carried out identically as in the direct experiment.
(§5) All FP experiments were done in triplicates. Analysis of FP experiments were carried out using ProFit, an in-house developed, Python-based fitting program. ProFit utilizes a Monte Carlo approach to take into account experimental variability. It generates hundreds of simulated datasets, based on the experimental data variance and fits direct and competitive measurements in pairs.

The target in another assay is T2, 14-3-3σ (Homo sapiens, UniProt P31947).
T2 construct: cDNAs encoding other full-length 14-3-3 isoforms β, τ, η, and σ were obtained as codon-optimized; made in house; host or cells: E. coli BL21(DE3)
T2 sequence (P31947 1-248): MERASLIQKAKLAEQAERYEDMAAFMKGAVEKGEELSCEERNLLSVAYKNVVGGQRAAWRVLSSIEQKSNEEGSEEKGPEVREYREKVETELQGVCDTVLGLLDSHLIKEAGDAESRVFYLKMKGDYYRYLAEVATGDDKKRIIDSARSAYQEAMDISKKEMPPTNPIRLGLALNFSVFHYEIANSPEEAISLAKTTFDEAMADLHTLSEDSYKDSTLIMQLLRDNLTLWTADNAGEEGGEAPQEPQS
On the procedure: as §1, §2, §3, §4, §5

A further assay addresses T3, 14-3-3τ (Homo sapiens, UniProt P27348).
T3 construct: cDNAs encoding other full-length 14-3-3 isoforms β, τ, η, and σ were obtained as codon-optimized; made in house; host or cells: E. coli BL21(DE3)
T3 sequence (P27348 1-245): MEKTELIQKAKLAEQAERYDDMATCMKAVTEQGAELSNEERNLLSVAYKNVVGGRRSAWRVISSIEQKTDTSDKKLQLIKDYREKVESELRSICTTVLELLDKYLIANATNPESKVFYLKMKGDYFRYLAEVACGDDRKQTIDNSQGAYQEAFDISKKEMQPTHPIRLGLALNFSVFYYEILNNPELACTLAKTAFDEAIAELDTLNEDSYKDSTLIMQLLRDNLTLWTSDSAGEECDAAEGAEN
On the procedure:
as §1, §2, §3, §4, §5

In another assay the target is T4, 14-3-3γ (Homo sapiens, UniProt P61981).
T4 construct: full-length human 14-3-3 constructs with an N-terminal MBP fusion were used; made in house; host or cells: E. coli BL21(DE3)
T4 sequence (P61981 1-247): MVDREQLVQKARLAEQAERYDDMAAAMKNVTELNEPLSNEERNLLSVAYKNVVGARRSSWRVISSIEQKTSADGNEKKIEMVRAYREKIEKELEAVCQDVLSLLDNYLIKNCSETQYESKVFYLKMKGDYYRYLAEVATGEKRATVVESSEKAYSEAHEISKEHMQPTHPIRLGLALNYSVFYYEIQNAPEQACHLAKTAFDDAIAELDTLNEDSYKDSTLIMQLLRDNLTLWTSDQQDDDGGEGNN
As to the method:
as §1, §2, §3, §4, §5

Where [1] appears, read: Figure 4 panel a, unit from the colour scale line, motifs measured in this work.

As for `CC(C)[C@H](NC(=O)[C@H](CCC(=O)O)NC(=O)[C@@H](NC(=O)[C@H](CCC(=O)O)NC(=O)[C@H](CCCNC(=N)N)NC(=O)[C@H](CCCNC(=N)N)NC(=O)[C@H](CCCNC(=N)N)NC(=O)[C@@H]1CCCN1C(=O)[C@H](CCCCN)NC(=O)[C@H](CO)NC(=O)CCC(=O)NCCCOCCOCCOCCCNC(=O)CCCC[C@@H]1SC[C@@H]2NC(=O)N[C@@H]21)[C@@H](C)OP(=O)(O)O)C(=O)O` [pHPV35E6T-6R] ({X1-Suc}-SKPRRRE[pT]EV-OH), the Kd was 179 ± 29 µM on 14-3-3β, over 300 µM at 14-3-3σ, 194 ± 37 µM on 14-3-3τ and 71.2 ± 6.7 µM at 14-3-3γ. Besides, the “Binding affinities (KD) of various 14-3-3-binding motifs, 14-3-3σ” value (from here on “Binding affinities (KD) … 14-3-3σ”) on 14-3-3σ (setting [1]) was “√”.

With `CC(C)C[C@H](NC(=O)[C@H](CCCNC(=N)N)NC(=O)CCC(=O)NCCCOCCOCCOCCCNC(=O)CCCC[C@@H]1SC[C@@H]2NC(=O)N[C@@H]21)C(=O)N[C@@H](CCC(N)=O)C(=O)N[C@@H](CCCNC(=N)N)C(=O)N[C@@H](CCCNC(=N)N)C(=O)N[C@@H](CCCNC(=N)N)C(=O)N[C@@H](CCC(=O)O)C(=O)N[C@H](C(=O)N[C@@H](CCC(N)=O)C(=O)N[C@H](C(=O)O)C(C)C)[C@@H](C)OP(=O)(O)O` [pHPV18E6], the Kd at 14-3-3β stood at 42.2 ± 6.3 µM; on 14-3-3σ, 139 ± 24 µM; at 14-3-3τ it was 37.8 ± 6 µM; on 14-3-3γ, 11.1 ± 0.6 µM.

Turning to `CC(C)C[C@H](NC(=O)[C@H](CCC(N)=O)NC(=O)[C@@H](NC(=O)[C@H](CCC(=O)O)NC(=O)[C@H](CCCNC(=N)N)NC(=O)[C@H](CCCNC(=N)N)NC(=O)[C@@H](NC(=O)[C@H](CCCNC(=N)N)NC(=O)[C@H](CO)NC(=O)[C@H](CO)NC(=O)CCC(=O)NCCCOCCOCCOCCCNC(=O)CCCC[C@@H]1SC[C@@H]2NC(=O)N[C@@H]21)[C@@H](C)O)[C@@H](C)OP(=O)(O)O)C(=O)O` [pHPV16E6], the dissociation constant Kd was 159 ± 45 µM at 14-3-3β, over 300 µM on 14-3-3σ, 144 ± 28 µM on 14-3-3τ and 37.2 ± 3 µM at 14-3-3γ. The “Binding affinities (KD) … 14-3-3σ” value at 14-3-3σ (setting [1]) is on record as “√”. The “Binding affinities (KD) of various 14-3-3-binding motifs, 14-3-3τ” value at 14-3-3τ (setting [1]) came out at 144 µM.

`CC(C)[C@H](NC(=O)[C@H](C)NC(=O)[C@@H](NC(=O)[C@H](CCC(=O)O)NC(=O)[C@H](CCCNC(=N)N)NC(=O)[C@H](CCCNC(=N)N)NC(=O)[C@@H](NC(=O)[C@@H]1CCCN1C(=O)[C@H](CCCCN)NC(=O)[C@H](CO)NC(=O)CCC(=O)NCCCOCCOCCOCCCNC(=O)CCCC[C@@H]1SC[C@@H]2NC(=O)N[C@@H]21)[C@@H](C)O)[C@@H](C)OP(=O)(O)O)C(=O)O` [pHPV35E6E-1A] ({X1-Suc}-SKPTRRE[pT]AV-OH): the Kd on 14-3-3β amounted to 20.2 µM; at 14-3-3σ, 44.1 µM; on 14-3-3τ, 21.5 µM; at 14-3-3γ, 9.31 µM.

In the case of `CC(C)[C@H](NC(=O)[C@H](CCC(=O)O)NC(=O)[C@@H](NC(=O)[C@H](CCC(=O)O)NC(=O)[C@H](CCCNC(=N)N)NC(=O)[C@H](CCCNC(=N)N)NC(=O)[C@@H](NC(=O)[C@@H]1CCCN1C(=O)[C@H](CCCCN)NC(=O)[C@H](CO)NC(=O)CCC(=O)NCCCOCCOCCOCCCNC(=O)CCCC[C@@H]1SC[C@@H]2NC(=O)N[C@@H]21)[C@@H](C)O)[C@@H](C)OP(=O)(O)O)C(=O)O` [pHPV35E6] ({X1-Suc}-SKPTRRE[pT]EV-OH), the “Binding affinities (KD) of various 14-3-3-binding motifs, 14-3-3β” value at 14-3-3β is “√”. For the same compound, the Kd on 14-3-3β is over 300 µM; at 14-3-3σ it was over 300 µM; at 14-3-3τ, 233 ± 14 µM; at 14-3-3γ (KD (μM) ± std 14-3-3γ), 125 ± 6 µM. Further, the “Binding affinities (KD) … 14-3-3σ” value at 14-3-3σ is recorded as “√”.

Take `CC(C)C[C@H](NC(=O)[C@H](C)NC(=O)[C@@H](NC(=O)[C@H](CCC(=O)O)NC(=O)[C@H](CCCNC(=N)N)NC(=O)[C@H](CCCNC(=N)N)NC(=O)[C@H](CCCNC(=N)N)NC(=O)[C@H](CO)NC(=O)[C@H](CCCNC(=N)N)NC(=O)[C@H](CO)NC(=O)CCC(=O)NCCCOCCOCCOCCCNC(=O)CCCC[C@@H]1SC[C@@H]2NC(=O)N[C@@H]21)[C@@H](C)OP(=O)(O)O)C(=O)O` [pHPV33E6] ({X1-Suc}-SRSRRRE[pT]AL-OH): the Kd on 14-3-3β was 4.05 µM; at 14-3-3σ, 6.77 µM; at 14-3-3τ it was 3.52 µM; at 14-3-3γ (Binding affinities (KD) of various 14-3-3-binding motifs, 14-3-3γ), 0.94 µM; on 14-3-3γ (KD (μM) ± std 14-3-3γ), under 1 µM.

As a reminder, the Kd is the constant that tells how readily two partners part at equilibrium. Lower therefore signals higher affinity.
